The test system of experiment [1] is GBM. As to the kind of experiment: Antiproliferative activity against patient-derived GBM cells assessed as cell viability after 48 hrs by 5-Ethynyl-2'-deoxyuridine incorporation assay. Type of experiment: functional, cell-based. The conditions noted are these: Homo sapiens.
Experiment [2] deals with GBM. The experiment is described as follows: Synergistic antiproliferative activity against patient-derived GBM cells assessed as cell viability after 48 hrs in presence of temozolomide by 5-Ethynyl-2'-deoxyuridine incorporation assay. The conditions noted are these: Homo sapiens. The experiment is classed as functional, cell-based.
For experiment [3], the system named is GBM. As to the kind of experiment: Antiproliferative activity against patient-derived GBM cells assessed as reduction in cell viability after 48 hrs by 5-Ethynyl-2'-deoxyuridine incorporation assay. The experiment is classed as functional, cell-based. As to conditions: Homo sapiens.
For experiment [4], the system named is GBM. The experiment is described as follows: cells. The experiment is classed as functional, cell-based. The conditions noted are these: Homo sapiens, 48 h.
Description: Synergistic antiproliferative activity against patient-derived GBM cells assessed as reduction in cell viability after 48 hrs in presence of temozolomide by 5-Ethynyl-2'-deoxyuridine incorporation assay
In experiment [5] the test system is GBM. As to the kind of experiment: Cytotoxicity against patient-derived GBM cells assessed as LDH release after 96 hrs by spectrophotometric method. The experiment is classed as functional, cell-based. As to conditions: Homo sapiens. For orientation: Release of lactate dehydrogenase indicates damage to the cell membrane.
Experiment [6] has as its system GBM. As to the kind of experiment: Selectivity ratio of EC50 for antiproliferative activity against patient-derived GBM cells to EC50 for antiproliferative activity against patient-derived GBM cells in presence of temozolomide. The experiment is classed as functional, Homo sapiens.
Experiment [7] has as its system GBM. As to the kind of experiment: Selectivity ratio of IC50 for antiproliferative activity against patient-derived GBM cells to IC50 for antiproliferative activity against patient-derived GBM cells in presence of temozolomide. The experiment is classed as functional, Homo sapiens.

In the case of `C[C@@H](Oc1cc(-c2cnn(C3CCN(C4=C(/C=C/C5=[N+](C)c6ccccc6C5(C)C)CCC/C4=C\C=C4\N(C)c5ccccc5C4(C)C)CC3)c2)cnc1N)c1c(Cl)ccc(F)c1Cl.[I-]`, the EC50 is 50 nM in the experiment on GBM [1], 15 nM in the experiment on GBM [2] and 93.1 nM in the experiment with GBM [5]. Further, the values for the IC50 with GBM [3] and in the experiment on GBM [4] were 4.7 nM and 1 nM, respectively. In addition, in the experiment on GBM [6], the “Ratio EC50” value turned out to be 3.

Consider `C[C@@H](Oc1cc(-c2cnn(C3CCNCC3)c2)cnc1N)c1c(Cl)ccc(F)c1Cl` [CRIZOTINIB], for which the 50% effective concentration (EC50) with GBM [1] came out at 5600 nM; with GBM [2], 3200 nM; in the experiment with GBM [5], 4300 nM. Further, the 50% inhibitory concentration (IC50) amounted to 540 nM with GBM [3] and 480 nM with GBM [4]. The “Ratio EC50” value with GBM [6] amounted to 1.7. Also, the “Ratio IC50” value with GBM [7] was determined as 1.13.

Broadly, the EC50 is the concentration at which the effect is half-maximal. By IC50 is commonly meant the concentration needed to halve the response being measured.
